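96-well plates; 48 h exposure; 5 concentrations. Endpoints by linear interpolation between flanking doses. Not reached: highest tested concentration assigned. Abbreviation: GI50, concentration required for 50% inhibition of growth.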 Active and inactive are the calls of the source. Rule as the data show it: active = GI50 up to about 1.1 µM and inactive = higher.
Columns and labels:
Assay in all cases: inhibition of tumour cell growth, NCI panel, 48 h
786-0 = test system: 786-0
CAKI-1 = test system: CAKI-1
COLO 205 = test system: COLO 205
DMS-273 = test system: DMS-273
IGROV-1 = test system: IGROV-1
Malme-3M = test system: Malme-3M
OVCAR-5 = test system: OVCAR-5
RPMI-8226 = test system: RPMI-8226
RXF 393 = test system: RXF 393
SK-MEL-28 = test system: SK-MEL-28
SK-MEL-2 = test system: SK-MEL-2
SK-OV-3 = test system: SK-OV-3
SN12C = test system: SN12C
SNB-75 = test system: SNB-75
TK-10 = test system: TK-10

Measured: GI50

COc1ccc(C(=O)/C(=N/Nc2ccccc2)c2ccc(OC)cc2)cc1
inactive: 786-0 > 100 µM | CAKI-1 > 100 µM | COLO 205 > 100 µM | DMS-273 31.6 µM | IGROV-1 > 100 µM | Malme-3M > 100 µM | OVCAR-5 > 100 µM | RPMI-8226 51.4 µM | RXF 393 31.9 µM | SK-MEL-28 > 100 µM | SK-MEL-2 > 100 µM | SK-OV-3 61.2 µM | SN12C > 100 µM | SNB-75 27 µM | TK-10 > 100 µM

COc1ccc(NC(=O)c2cc(OC)c(OC)c(OC)c2)cc1
inactive: 786-0 > 81.8 µM | CAKI-1 66.4 µM | COLO 205 26.5 µM | DMS-273 29.1 µM | IGROV-1 66.1 µM | Malme-3M 41.6 µM | OVCAR-5 > 100 µM | RPMI-8226 39.5 µM | RXF 393 31.3 µM | SK-MEL-28 29 µM | SK-MEL-2 21.8 µM | SK-OV-3 49.8 µM | SN12C 55 µM | SNB-75 42.2 µM | TK-10 > 100 µM

CC1=C(C(=O)NCc2ccccc2)C(c2ccccc2O)C(C(=O)NCc2ccccc2)=C(C)N1
inactive: 786-0 19.3 µM | CAKI-1 18.3 µM | COLO 205 16.9 µM | DMS-273 14.6 µM | IGROV-1 19.5 µM | Malme-3M 15.7 µM | OVCAR-5 18.9 µM | RPMI-8226 29.6 µM | RXF 393 17.9 µM | SK-MEL-28 18 µM | SK-MEL-2 15.4 µM | SK-OV-3 26.1 µM | SN12C 17.1 µM | SNB-75 23.6 µM | TK-10 17.9 µM

COC(=O)C(/C(=N\O)C(=O)Nc1ccc(Br)cc1)c1nc2ccccc2nc1O (centres undefined)
inactive: 786-0 31 µM | CAKI-1 > 100 µM | COLO 205 18.5 µM | DMS-273 31.1 µM | IGROV-1 19 µM | Malme-3M 45.1 µM | OVCAR-5 > 100 µM | RPMI-8226 26.9 µM | RXF 393 36.7 µM | SK-MEL-28 36.7 µM | SK-MEL-2 23 µM | SK-OV-3 > 100 µM | SN12C 35.8 µM | SNB-75 23.6 µM | TK-10 > 10 µM

COc1ccc2n[se]nc2c1
inactive: 786-0 48.3 µM | CAKI-1 > 100 µM | COLO 205 > 100 µM | DMS-273 > 100 µM | IGROV-1 38.9 µM | Malme-3M 65.8 µM | OVCAR-5 > 100 µM | RPMI-8226 > 100 µM | RXF 393 48.4 µM | SK-MEL-28 > 100 µM | SK-MEL-2 41.5 µM | SK-OV-3 46.3 µM | SN12C > 100 µM | SNB-75 64.1 µM | TK-10 70.6 µM

COc1ccc(C2C(Cl)C(=O)N2n2cnc3ccccc3c2=O)cc1OC (centres undefined)
inactive: 786-0 > 100 µM | CAKI-1 > 100 µM | COLO 205 > 100 µM | DMS-273 > 100 µM | IGROV-1 74.1 µM | Malme-3M > 100 µM | OVCAR-5 > 100 µM | RPMI-8226 81.1 µM | RXF 393 96.8 µM | SK-MEL-28 68.7 µM | SK-MEL-2 > 100 µM | SK-OV-3 76.4 µM | SN12C > 100 µM | SNB-75 21.5 µM | TK-10 > 100 µM

COc1cc2c(cc1OC)c1c(OC)c(OC)cc3c1c1c2sc(=S)n1CC3
inactive: 786-0 18.1 µM | CAKI-1 > 100 µM | COLO 205 > 100 µM | DMS-273 53.1 µM | IGROV-1 > 100 µM | Malme-3M 86.3 µM | OVCAR-5 > 100 µM | RPMI-8226 32.1 µM | RXF 393 89.1 µM | SK-MEL-28 46.9 µM | SK-MEL-2 > 100 µM | SK-OV-3 > 100 µM | SN12C 64.6 µM | SNB-75 74.6 µM | TK-10 > 100 µM

C#CC1/C(=C\C(=O)OC)CCCC1O (centres undefined)
inactive: 786-0 > 100 µM | CAKI-1 > 100 µM | COLO 205 > 100 µM | DMS-273 > 100 µM | IGROV-1 > 100 µM | Malme-3M > 100 µM | OVCAR-5 > 100 µM | RPMI-8226 > 100 µM | RXF 393 > 100 µM | SK-MEL-2 > 100 µM | SK-OV-3 > 100 µM | SN12C > 100 µM | SNB-75 > 100 µM | TK-10 > 100 µM

CC(=O)Oc1cc2c(cc1OC(C)=O)C1(C)CCC2(C)c2cc(OC(C)=O)c(OC(C)=O)cc21
inactive: 786-0 15 µM | CAKI-1 8.55 µM | COLO 205 51.4 µM | DMS-273 19.4 µM | IGROV-1 26.7 µM | Malme-3M 13 µM | OVCAR-5 28.4 µM | RPMI-8226 3.52 µM | RXF 393 40.7 µM | SK-MEL-28 21.4 µM | SK-MEL-2 16.7 µM | SK-OV-3 29.2 µM | SN12C 40.3 µM | SNB-75 4.92 µM | TK-10 26.5 µM

— ChEMBL document CHEMBL1201862, “PubChem BioAssay data set” (2004)
